From US20030134292A1, “Thermostable DNA polymerases and methods of making same” (priority 2001, published 2003)

B1: T4 gene 32 Protein: T4 gene 32 Protein (protein, UniProt P03695 1-301, looked up)
Single-stranded DNA-binding …: MFKRKSTAELAAQMAKLNGNKGFSSEDKGEWKLKLDNAGNGQAVIRFLPSKNDEQAPFAILVNHGFKKNGKWYIETCSSTHGDYDSCPVCQYISKNDLYNTDNKEYSLVKRKTSYWANILVVKDPAAPENEGKVFKYRFGKKIWDKINAMIAVDVEMGETPVDVTCPWEGANFVLKVKQVSGFSNYDESKFLNQSAIPNIDDESFQKELFEQMVDLSEMTSKDKFKSFEELNTKFGQVMGTAVMGGAAATAAKKADKVADDLDAFNVDDFNTKTEDDFMSSSSGSSSSADDTDLDDLLNDL

Columns and labels:
Assay type in all cases: biochemical
[1] = molecular target: T1, Taq Δ271 F667Y (polymerase A) (Thermus aquaticus, UniProt P19821, F272M/F667Y); experiment: DNA polymerase activity assay with detergent or additive, Taq Δ271 F667Y purified without detergent
T1 construct: made in house; host or cells: E. coli
Method: (§1) DNA polymerase activity was measured by running reactions of 50 μL containing 25 mM TAPS (tris-hydroxymethyl-methylaminopropane sulfonic acid) buffer, pH 9.3 (measured at 25° C.), 50 mM KCl, 2 mM MgCl2, 1 mM 2-mercaptoethanol, 0.2 mM each of dGTP, dCTP, dTTP, 0.2 mM [α-^33P]-dATP (0.05-0.1 Ci/mmol) and 0.4 mg/mL activated salmon sperm DNA. The reaction mixture (45 μL) was pre-heated to 74° C. and diluted polymerase (5 μL) added with thorough mixing. After 10 minutes of further incubation at 74° C., the reaction was stopped by the addition of 10 μL of 60 mM EDTA and the entire mixture placed at 0° C. Acid-precipitable radioactivity was determined on an aliquot ([…]) by diluting with 1 ml of 2 mM EDTA containing 0.05 mg/ml salmon sperm DNA and adding 1 mL of 20% (w/v) trichloroacetic acid, 2% (w/v) sodium pyrophosphate (Na4P2O7 10H2O) and incubating on ice for at least 15 minutes. Precipitated DNA was collected by filtering through 2.4 cm GFC filter disks (Schleichter and Schuell) and washed 7 times with 5ml of with 1 N HCl, 0.1 M sodium pyrophosphate. The filter was placed in 3 ml of aqueous scintillation counting fluid and ^33P-specific radioactivity determined by scintillation counting.
(§2) For the assays presented in Tables 5 and 6, the polymerase was diluted 10-5000 fold in a buffer containing 25 mM Tris-HCl pH 8.0, 50 mM KCl, 1 mM 2-mercaptoethanol, and the indicated concentration of detergent or other additive. Where possible, only reactions which incorporated 20- 100 pmol of dAMP in 10 minutes were used for calculation of activity.

[2] = molecular target: T2, Taq Δ271 F667Y E681W (polymerase B) (Thermus aquaticus, UniProt P19821, E681W/F272M/F667Y); experiment: DNA polymerase activity assay with detergent or additive, Taq Δ271 F667Y E681W purified without detergent
T2 construct: made in house; host or cells: E. coli
Method: as §1, §2

[3] = molecular target: T3, Tth Δ273 F668Y (polymerase C) (Thermus thermophilus, UniProt P52028, F274M/F669Y); experiment: DNA polymerase activity assay with detergent or additive, Tth Δ273 F668Y purified without detergent
T3 construct: made in house; host or cells: E. coli
Method: as §1, §2

[4] = additive final concentration 0.01% (w/v)
[5] = additive final concentration 0.05% (w/v)
[6] = additive final concentration 0.1% (w/v)
[7] = additive final concentration 0.001% (w/v) in assay reaction mixture
[8] = additive final concentration 0.85% (w/v)
[9] = additive final concentration 0.5% (w/v)
[10] = additive final concentration 60 μg/ml
[11] = additive final concentration 20 μg/ml
[12] = additive final concentration 100 μg/ml

T3 sequence (P52028 274-834 F274M/F669Y): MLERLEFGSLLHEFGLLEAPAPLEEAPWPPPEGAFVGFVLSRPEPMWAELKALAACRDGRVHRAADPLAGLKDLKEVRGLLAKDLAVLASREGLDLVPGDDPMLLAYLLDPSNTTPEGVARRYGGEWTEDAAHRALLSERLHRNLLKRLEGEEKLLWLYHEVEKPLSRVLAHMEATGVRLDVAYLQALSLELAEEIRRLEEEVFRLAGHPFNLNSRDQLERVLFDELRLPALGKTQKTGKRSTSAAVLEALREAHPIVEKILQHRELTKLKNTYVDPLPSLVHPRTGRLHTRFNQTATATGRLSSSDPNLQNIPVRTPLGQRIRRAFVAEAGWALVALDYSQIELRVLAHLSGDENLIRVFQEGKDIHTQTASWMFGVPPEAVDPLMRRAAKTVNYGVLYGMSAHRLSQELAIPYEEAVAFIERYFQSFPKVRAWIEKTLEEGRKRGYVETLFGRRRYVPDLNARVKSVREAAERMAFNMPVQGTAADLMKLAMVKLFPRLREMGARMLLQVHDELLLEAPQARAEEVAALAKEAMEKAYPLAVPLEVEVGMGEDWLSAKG
T1 sequence (P19821 272-832 F272M/F667Y): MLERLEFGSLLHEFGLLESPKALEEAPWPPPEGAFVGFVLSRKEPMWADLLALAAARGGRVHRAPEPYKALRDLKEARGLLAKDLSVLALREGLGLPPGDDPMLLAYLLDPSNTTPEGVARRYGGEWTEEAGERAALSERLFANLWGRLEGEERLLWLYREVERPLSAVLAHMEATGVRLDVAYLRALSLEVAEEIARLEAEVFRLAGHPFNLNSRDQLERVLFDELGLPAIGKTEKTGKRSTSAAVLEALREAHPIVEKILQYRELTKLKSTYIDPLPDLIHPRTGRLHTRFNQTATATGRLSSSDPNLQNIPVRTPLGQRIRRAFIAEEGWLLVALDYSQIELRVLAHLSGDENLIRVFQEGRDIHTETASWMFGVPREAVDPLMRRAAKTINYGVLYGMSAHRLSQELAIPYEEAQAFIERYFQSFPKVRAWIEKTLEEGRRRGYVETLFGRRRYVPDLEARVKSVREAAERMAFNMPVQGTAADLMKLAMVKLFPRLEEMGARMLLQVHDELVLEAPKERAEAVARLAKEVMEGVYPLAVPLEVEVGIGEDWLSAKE
T2 sequence (P19821 272-832 F272M/F667Y/E681W): as the sequence (P19821 272-832 F272M/F667Y) above, with E410W counted along it

| Molecule | Taq Δ271 F667Y activity relative to 0.5% each NP-40 and Tween 20 [1, 4] | Taq Δ271 F667Y activity relative to 0.5% each NP-40 and Tween 20 [1, 5] | Taq Δ271 F667Y activity relative to 0.5% each NP-40 and Tween 20 [1, 6] | Taq Δ271 F667Y E681W activity relative to 0.5% each NP-40 and Tween 20 [2, 4] | Taq Δ271 F667Y E681W activity relative to 0.5% each NP-40 and Tween 20 [2, 5] | Taq Δ271 F667Y E681W activity relative to 0.5% each NP-40 and Tween 20 [2, 6] | Tth Δ273 F668Y activity relative to 0.5% each NP-40 and Tween 20 [3, 4] | Tth Δ273 F668Y activity relative to 0.5% each NP-40 and Tween 20 [3, 5] | Tth Δ273 F668Y activity relative to 0.5% each NP-40 and Tween 20 [3, 6] | further results |
| --- | --- | --- | --- | --- | --- | --- | --- | --- | --- | --- |
| C[C@H](CCC(=O)NCCC[N+](C)(C)CCCS(=O)(=O)[O-])[C@H]1CC[C@H]2[C@@H]3[C@H](O)C[C@@H]4C[C@H](O)CC[C@]4(C)[C@H]3C[C@H](O)[C@]12C [CHAPS, 3-[(3-Cholamidopropyl)dimethylammonio]-1-propanesulfonate] | − − (Activity 20-50%) | − (Activity 50-60%) | + (Activity 60-70%) | − − − (Activity < 20%) | − − (Activity 20-50%) | − (Activity 50-60%) | − (Activity 50-60%) | − − (Activity 20-50%) | − − (Activity 20-50%) | – |
| C[C@H](CCC(=O)NCCC[N+](C)(C)CC(O)CS(=O)(=O)[O-])[C@H]1CC[C@H]2[C@@H]3[C@H](O)C[C@@H]4C[C@H](O)CC[C@]4(C)[C@H]3C[C@H](O)[C@]12C (some centres unmarked) [CHAPSO, 3-[(3-Cholamidopropyl)dimethylammonio]-2-hydroxy-1-propanesulfonate] | − − − (Activity < 20%) | − − (Activity 20-50%) | + (Activity 60-70%) | − − − (Activity < 20%) | − − (Activity 20-50%) | − − (Activity 20-50%) | − (Activity 50-60%) | − − (Activity 20-50%) | − − (Activity 20-50%) | – |
| CC1=NCC[C@@H](C(=O)O)N1 [Ectoin] | − − − (Activity < 20%) | – | − − − (Activity < 20%) | − − − (Activity < 20%) | – | − − − (Activity < 20%) | − − − (Activity < 20%) | – | − − − (Activity < 20%) | Taq Δ271 F667Y activity relative to 0.5% each NP-40 and Tween 20 [1, 7]: − − − (Activity < 20%); Taq Δ271 F667Y E681W activity relative to 0.5% each NP-40 and Tween 20 [2, 7]: − − − (Activity < 20%); Tth Δ273 F668Y activity relative to 0.5% each NP-40 and Tween 20 [3, 7]: − − − (Activity < 20%) |
| CC1=NC[C@H](O)[C@@H](C(=O)O)N1 [Hydroxyectoin] | − − − (Activity < 20%) | − − − (Activity < 20%) | – | − − − (Activity < 20%) | − − − (Activity < 20%) | – | − − − (Activity < 20%) | − − − (Activity < 20%) | – | – |
| CCCCCCCC(=O)N(C)C[C@H](O)[C@@H](O)[C@H](O)[C@H](O)CO [Mega-8, Ocatanoyl-N-mehtylglucamide] | – | – | + + (Activity 70-80%) | − − − (Activity < 20%) | – | − (Activity 50-60%) | – | – | + + (Activity 70-80%) | Taq Δ271 F667Y activity relative to 0.5% each NP-40 and Tween 20 [1, 8]: + (Activity 60-70%); Polymerase A Activity (%) ([1]; detergent 0.5% (w/v)): 76.6%; Taq Δ271 F667Y E681W activity relative to 0.5% each NP-40 and Tween 20 [2, 7]: − − − (Activity < 20%); Taq Δ271 F667Y E681W activity relative to 0.5% each NP-40 and Tween 20 [2, 9]: + + + (Activity > 80% (relative to activity using 0.5% each NP-40 and Tween 20)); Taq Δ271 F667Y E681W activity relative to 0.5% each NP-40 and Tween 20 [2, 8]: − − (Activity 20-50%); Polymerase B Activity (%) ([2]; detergent 0.5% (w/v)): 71%; Tth Δ273 F668Y activity relative to 0.5% each NP-40 and Tween 20 [3, 9]: + (Activity 60-70%); Tth Δ273 F668Y activity relative to 0.5% each NP-40 and Tween 20 [3, 8]: + (Activity 60-70%); Polymerase C Activity (%) ([3]; detergent 0.5% (w/v)): 84.5% |
| CCCCCCCCC(=O)N(C)C[C@H](O)[C@@H](O)[C@H](O)[C@H](O)CO [Mega-9, Nonyl-N-methylglucamide] | − − − (Activity < 20%) | − − (Activity 20-50%) | – | − − − (Activity < 20%) | + + (Activity 70-80%) | – | − − (Activity 20-50%) | + + + (Activity > 80% (relative to activity using 0.5% each NP-40 and Tween 20)) | – | Polymerase A Activity (%) ([1]; detergent 0.05% (w/v)): 71.2%; Polymerase B Activity (%) ([2]; detergent 0.05% (w/v)): 82%; Polymerase C Activity (%) ([3]; detergent 0.05% (w/v)): 74% |
| CCCCCCCCCC(=O)N(C)C[C@H](O)[C@@H](O)[C@H](O)[C@H](O)CO [Mega-10, D-decanoyl-N-methyl glucamide] | − − (Activity 20-50%) | + + (Activity 70-80%) | – | − − − (Activity < 20%) | + + + (Activity > 80% (relative to activity using 0.5% each NP-40 and Tween 20)) | – | + + (Activity 70-80%) | − − (Activity 20-50%) | – | Taq Δ271 F667Y activity relative to 0.5% each NP-40 and Tween 20 [1, 7]: − − − (Activity < 20%); Polymerase A Activity (%) ([1]; detergent 0.05% (w/v)): 94%; Polymerase B Activity (%) ([2]; detergent 0.05% (w/v)): 73%; Tth Δ273 F668Y activity relative to 0.5% each NP-40 and Tween 20 [3, 7]: − − (Activity 20-50%); Polymerase C Activity (%) ([3]; detergent 0.05% (w/v)): 100% |
| CCCCCCCCCCCCCC[N+](C)(C)CCCS(=O)(=O)[O-] [Zwittergent 3-14] | – | – | – | − − − (Activity < 20%) | – | – | – | – | – | – |
| Bovine Serum Albumin (BSA): Bovine Serum Albumin | – | – | – | – | – | – | – | – | – | Taq Δ271 F667Y activity relative to 0.5% each NP-40 and Tween 20 [1, 10]: − (Activity 50-60%); Tth Δ273 F668Y activity relative to 0.5% each NP-40 and Tween 20 [3, 10]: − − (Activity 20-50%) |
| E. coli Single-Stranded DNA Binding Protein: E. coli Single-Stranded DNA Binding Protein | – | – | – | – | – | – | – | – | – | Tth Δ273 F668Y activity relative to 0.5% each NP-40 and Tween 20 [3, 11]: − − − (Activity < 20%); Tth Δ273 F668Y activity relative to 0.5% each NP-40 and Tween 20 [3, 12]: − − − (Activity < 20%) |
| gelatin | – | – | – | – | – | – | – | – | – | Tth Δ273 F668Y activity relative to 0.5% each NP-40 and Tween 20 ([3]; additive final concentration 50 μg/ml): − − − (Activity < 20%) |
| B1 | – | – | – | – | – | – | – | – | – | Tth Δ273 F668Y activity relative to 0.5% each NP-40 and Tween 20 [3, 11]: − − − (Activity < 20%); Tth Δ273 F668Y activity relative to 0.5% each NP-40 and Tween 20 [3, 12]: − − − (Activity < 20%) |
